Test results from patent publication US6429209B2, “Methods for treating irritable bowel syndrome” (SmithKline Beecham Corporation, priority 1997, dated 2002).
Where two headings read alike, the source gives them in different places.

Experiments:
IBS patients [1] = test: 12-week placebo-controlled clinical study of alosetron (1, 2, 4 or 8 mg BID) in nonconstipated IBS patients; assay type: in vivo, human; conditions: for % Responders (adequate relief of IBS pain and discomfort): 12 weeks; for % Days with Urgency / Stool # per day / Stool Consistentcy: mean, week 9-12 interval; for Stool Consistentcy: score 1= very hard to 5= watery; for % Weeks with adequate relief: median
Protocol: Three hundred and seventy IBS patients were randomised for study: 80 were randomised to treatment with placebo BID, 72 to 1 mg BID alosetron, 74 to 2 mg BID alosetron, 76 to 4 mg BID alosetron and 68 to 8 mg BID alosetron. […] Patients were required to have symptoms which fulfilled the Rome Criteria for IBS (5) for at least 6 months. […] Daily and weekly symptom data were collected using a recently described electronic touch-tone telephone based system (24,25). Patients underwent a 2 week screening period with no IBS treatment to ensure sufficient baseline level of abdominal pain as well as compliance with the data collection system. Pain was assessed daily on a 5 point scale (0=none; 1=mild; 2=moderate; 3=intense; 4=severe). Average baseline pain over the 2 week screening period was required to be between 1.5-3.3, inclusive, and at least 4 days with at least moderate pain was required for enrolment into the study. Stool consistency data were also collected (1=very hard; 2=hard; 3=formed; 4=loose; and 5=watery). During the screening period an average stool consistency score of ≧2.5 was required for entry into the study in order to exclude those with predominant constipation. Following the screening period, eligible patients were randomised with equal allocation to 12 weeks of study medication (BID) of placebo or alosetron 1, 2, 4 or 8 mg taken prior to meals. Patients were followed for 2 weeks post-treatment. During the screening period, treatment phase and follow-up period, patients were asked daily questions about their IBS symptoms. Once every 7 days, during the treatment phase of the study, patients responded to an additional question as to whether they had obtained adequate relief of their IBS-related abdominal pain and discomfort during the previous 7 days. For this study, a responder was prospectively defined as a patient who completed the treatment phase of the study and reported adequate relief of their IBS pain and discomfort for at least 6 weeks. […] In addition, a monthly responder was defined as a patient who reported adequate relief of their IBS pain and discomfort for at least 2 weeks per month. For the monthly analysis, a last observation carried forward procedure was employed, whereby a month with all missing weeks was assigned the number of weeks with adequate relief from the previous non-missing month. Thus, this analysis satisfied the Intent-to-Treat principle by including all patients and months. Treatment groups were compared for the proportion of patients defined as responders, for both endpoints, using a Mantel-Haenszel test stratified for investigator cluster. Finally, the proportion of weeks with adequate relief was compared between treatment groups using a log-rank test. Daily stool consistency scores and daily number of bowel movements were averaged over the baseline, weekly for weeks 1-4, and monthly (weeks 1-4, 5-8, and 9-12) intervals. In addition, the proportion of days patients experienced a sense of urgency was calculated over the monthly and weekly intervals. For the monthly intervals, the treatment groups were compared for change from baseline using a van Elteren test adjusted for investigator cluster. For the weekly intervals, the treatment groups were compared at each week using a van Elteren test adjusted for-investigator cluster.

IBS patients [2] = conditions: cited from earlier work
normal volunteers = conditions: cited from earlier work
[3] = female patients, alosetron 1 mg BID
[4] = female patients, alosetron 1 mg BID, month 1
[5] = female patients, alosetron 1 mg BID, month 2
[6] = female patients, alosetron 1 mg BID, month 3
[7] = female patients, alosetron 2 mg BID
[8] = female patients, alosetron 4 mg BID
[9] = female patients, alosetron 8 mg BID

Cc1[nH]cnc1CN1CCc2c(c3ccccc3n2C)C1=O [Alosetron, 2,3,4,5-tetrahydro-5-methyl-2-[(5-methyl-1 H-imidazol-4-yl)methyl]-1H-pyrido[4,3-b]indol-1-one]
abdominal pain and bowel function (IBS patients [1]; female IBS patients): significantly improved
more responders for adequate relief as compared to placebo (IBS patients [1]; [3]): 27%
% Responders (adequate relief of IBS pain and discomfort) (IBS patients [1]; [3]): 60%
monthly adequate relief (IBS patients [1]; female patients, alosetron 1 mg BID, each month): statistically significant improvement
% Responders, monthly intervals (adequate relief) (IBS patients [1]; [4]): 53%
increase in monthly responders above placebo (IBS patients [1]; [4]): 21%
% Responders, monthly intervals (adequate relief) (IBS patients [1]; [5]): 62%
increase in monthly responders above placebo (IBS patients [1]; [5]): 20%
% Responders, monthly intervals (adequate relief) (IBS patients [1]; [6]): 60%
increase in monthly responders above placebo (IBS patients [1]; [6]): 24%
% Responders (adequate relief of IBS pain and discomfort) (IBS patients [1]; [7]): 59%
% Responders (adequate relief of IBS pain and discomfort) (IBS patients [1]; [8]): 51%
% Responders (adequate relief of IBS pain and discomfort) (IBS patients [1]; [9]): 52%
time of treatment after which a statistically significant benefit over placebo in bowel parameters was achieved (IBS patients [1]; female patients, benefit persisted throughout 12 week treatment): 1 week
% Days with Urgency (IBS patients [1]; [3]): 33.0%
Stool # per day (IBS patients [1]; [3]): 1.4
Stool Consistentcy (IBS patients [1]; [3]): 2.1
% Days with Urgency (IBS patients [1]; [7]): 35.9%
Stool # per day (IBS patients [1]; [7]): 1.7
Stool Consistentcy (IBS patients [1]; [7]): 2.2
% Days with Urgency (IBS patients [1]; [8]): 37.8%
Stool # per day (IBS patients [1]; [8]): 1.8
Stool Consistentcy (IBS patients [1]; [8]): 2.4
% Days with Urgency (IBS patients [1]; [9]): 41.5%
Stool # per day (IBS patients [1]; [9]): 1.3
Stool Consistentcy (IBS patients [1]; [9]): 1.8
% Weeks with adequate relief (IBS patients [1]; [3]): 58%
% Weeks with adequate relief (IBS patients [1]; [7]): 50%
% Weeks with adequate relief (IBS patients [1]; [8]): 50%
% Weeks with adequate relief (IBS patients [1]; [9]): 50%
stool consistency, bowel movement frequency and proportion of days with urgency as compared to placebo (IBS patients [1]; female patients, most doses of alosetron): significantly improved
proportion of weeks with adequate relief (IBS patients [1]; male patients): no meaningful benefit
% Responders (adequate relief of IBS pain and discomfort) (IBS patients [1]; male patients, alosetron 1 mg BID): 20%
% Responders (adequate relief of IBS pain and discomfort) (IBS patients [1]; male patients, alosetron 2 mg BID): 50%
% Responders (adequate relief of IBS pain and discomfort) (IBS patients [1]; male patients, alosetron 4 mg BID): 54%
% Responders (adequate relief of IBS pain and discomfort) (IBS patients [1]; male patients, alosetron 8 mg BID): 52%
responders for adequate relief relative to placebo (IBS patients [1]; male population, any dose of alosetron): No meaningful improvement relative to placebo
bowel-related functions with the exception of stool consistency, versus placebo (IBS patients [1]; males): no significant improvement over placebo
monthly adequate relief relative to placebo (IBS patients [1]; males, any month, any dose of alosetron): No improvement relative to placebo
stool consistency (IBS patients [1]; males, doses of alosetron higher than 1 mg BID): improved significantly
tolerability (IBS patients [1]; nonconstipated female IBS patients): well tolerated
colonic transit (IBS patients [2]; IBS patients, preliminary reports): slow colonic transit
abdominal pain (IBS patients [2]; preliminary reports): improve abdominal pain

CN1C2CCCC1CC(NC(=O)c1nn(C)c3ccccc13)C2 (stereo not shown) [granisetron]
post-prandial motor activity (IBS patients [2]; IBS patients): reduce post-prandial motor activity
rectal sensitivity (IBS patients [2]; IBS patients): decrease in rectal sensitivity

Cc1nccn1CC1CCc2c(c3ccccc3n2C)C1=O (stereo not shown) [ondansetron]
contractile response of the colon (normal volunteers; healthy volunteers, early postprandial period): inhibits the contractile response of the colon
colonic transit (normal volunteers; normal volunteers): slow colonic transit
stool consistency (IBS patients [2]; diarrhoea-predominant IBS patients): improves stool consistency
rectal compliance (IBS patients [2]; patients with IBS): increases rectal compliance
